In patent US6214856A, “Indolecarboxamides, pharmaceutical compositions and methods of inhibiting calpain” (SmithKline Beecham Corporation, priority 1999, dated 2001):

Each compound was assayed on calpain (assay: inhibition of calpain in vitro (rate of hydrolysis of synthetic fluorogenic substrates)). Conditions: percent decrease in rate of substrate hydrolysis.
Type: biochemical
Experimental: The assays were performed using synthetic fluorogenic substrates. Inhibition of enzyme activity was calculated on the percent decrease in the rate of substrate hydrolysis in the presence of inhibitor relative to the rate in its absence. IC50s (nM) were calculated.

In order of falling IC50:
1. O=C[C@H](Cc1ccccc1)NC(=O)c1cc2ccccc2[nH]1 [Example 2, (S)-N-(1-formyl-2-phenylethyl)-2-indolecarboxamide]  600 nM
2. CS(=O)(=O)n1c(C(=O)N[C@H](C=O)Cc2ccccc2)cc2ccccc21 [Example 5, (S)-N-(1-formyl-2-phenylethyl)-1-(methylsulfonyl)-2-indolecarboxamide]  600 nM
3. COc1ccc2cc(C(=O)N[C@H](C=O)Cc3ccccc3)[nH]c2c1 [Example 7, (S)-N-(1-formyl-2-phenylethyl)-6-methoxy-2-indolecarboxamide]  600 nM
4. Cn1c(C(=O)N[C@H](C=O)Cc2ccccc2)cc2ccccc21 [Example 1, (S)-N-(1-formyl-2-phenylethyl)-1-methyl-2-indolecarboxamide]  500 nM
5. O=C[C@H](Cc1ccccc1)NC(=O)c1cc2ccccc2n1Cc1ccccc1 [Example 6, (S)-N-(1-formyl-2-phenylethyl)-1-(phenylmethyl)-2-indolecarboxamide]  500 nM
6. O=C[C@H](Cc1ccccc1)NC(=O)c1cc2cc(Br)ccc2[nH]1 [Example 4, (S)-5-bromo-N-(1-formyl-2-phenylethyl)-2-indolecarboxamide]  230 nM
7. COc1cc2cc(C(=O)N[C@H](C=O)Cc3ccccc3)[nH]c2cc1OCc1ccccc1 [Example 3, (S)-N-(1-formyl-2-phenylethyl)-5-methoxy-6-(phenylmethoxy)-2-indolecarboxamide]  135 nM
8. Cc1c(C(=O)N[C@H](C=O)Cc2ccccc2)n(Cc2ccccc2)c2ccccc12 [Example 8, (S)-N-(1-formyl-2-phenylethyl)-3-methyl-1-(phenylmethyl)-2-indolecarboxamide]  30 nM
